Measured values published in ChEMBL document CHEMBL5034027, “Synthesis and evaluation of stereoisomers of methylated catechin and epigallocatechin derivatives on modulating P-glycoprotein-mediated multidrug resistance in cancers” (Eur J Med Chem, 2021).

Columns and labels:
[1] = Reversal of P-glycoprotein mediated drug resistance in human LCC6MDR cells assessed as reversal of paclitaxel resistance measured after 5 days by Cell Titer-Glo luminescence assay; assay type: cell-based; conditions: 120 h
L929 = assay: Cytotoxicity against mouse L929 cells assessed as reduction in cell viability incubated for 72 hrs by MTS assay; assay type: cell-based; conditions: L929, 72 h
P-gp = assay: Selectivity index, ratio of IC50 for cytotoxicity against mouse L929 cells to EC50 for inhibition of P-gp in human LCC6MDR cells assessed as reversal of paclitaxel resistance; assay type: toxicity, cell-based; conditions: L929 cells (cytotoxicity IC50) and LCC6MDR cells (P-gp EC50), probe paclitaxel, read-out: Selectivity Index
[2] = target: T1, ATP-dependent translocase ABCB1 (Homo sapiens, UniProt P08183); assay: Inhibition of P-gp in human LCC6MDR cells assessed as intracellular DOX retention at 2 uM incubated for 60 mins by flow cytometry analysis relative to control; assay type: cell-based; set-up: scale not given: the % may be the effect or the level left; conditions: 1 h
[3] = target: T1, ATP-dependent translocase ABCB1; assay: Inhibition of P-gp in human LCC6MDR cells assessed as intracellular DOX retention at 2 uM incubated for 90 mins by flow cytometry analysis relative to control; assay type: cell-based; set-up: scale not given: the % may be the effect or the level left
[4] = target: T1, ATP-dependent translocase ABCB1; assay: Inhibition of P-gp in human LCC6MDR cells assessed as intracellular DOX retention at 2 uM incubated for 120 mins by flow cytometry analysis relative to control; assay type: cell-based; set-up: scale not given: the % may be the effect or the level left; conditions: 2 h
[5] = Reversal of P-glycoprotein mediated drug resistance in human LCC6MDR cells assessed as reversal of Dox resistance measured after 5 days by Cell Titer-Glo luminescence assay; conditions: 120 h

T1 sequence (P08183 whole entry): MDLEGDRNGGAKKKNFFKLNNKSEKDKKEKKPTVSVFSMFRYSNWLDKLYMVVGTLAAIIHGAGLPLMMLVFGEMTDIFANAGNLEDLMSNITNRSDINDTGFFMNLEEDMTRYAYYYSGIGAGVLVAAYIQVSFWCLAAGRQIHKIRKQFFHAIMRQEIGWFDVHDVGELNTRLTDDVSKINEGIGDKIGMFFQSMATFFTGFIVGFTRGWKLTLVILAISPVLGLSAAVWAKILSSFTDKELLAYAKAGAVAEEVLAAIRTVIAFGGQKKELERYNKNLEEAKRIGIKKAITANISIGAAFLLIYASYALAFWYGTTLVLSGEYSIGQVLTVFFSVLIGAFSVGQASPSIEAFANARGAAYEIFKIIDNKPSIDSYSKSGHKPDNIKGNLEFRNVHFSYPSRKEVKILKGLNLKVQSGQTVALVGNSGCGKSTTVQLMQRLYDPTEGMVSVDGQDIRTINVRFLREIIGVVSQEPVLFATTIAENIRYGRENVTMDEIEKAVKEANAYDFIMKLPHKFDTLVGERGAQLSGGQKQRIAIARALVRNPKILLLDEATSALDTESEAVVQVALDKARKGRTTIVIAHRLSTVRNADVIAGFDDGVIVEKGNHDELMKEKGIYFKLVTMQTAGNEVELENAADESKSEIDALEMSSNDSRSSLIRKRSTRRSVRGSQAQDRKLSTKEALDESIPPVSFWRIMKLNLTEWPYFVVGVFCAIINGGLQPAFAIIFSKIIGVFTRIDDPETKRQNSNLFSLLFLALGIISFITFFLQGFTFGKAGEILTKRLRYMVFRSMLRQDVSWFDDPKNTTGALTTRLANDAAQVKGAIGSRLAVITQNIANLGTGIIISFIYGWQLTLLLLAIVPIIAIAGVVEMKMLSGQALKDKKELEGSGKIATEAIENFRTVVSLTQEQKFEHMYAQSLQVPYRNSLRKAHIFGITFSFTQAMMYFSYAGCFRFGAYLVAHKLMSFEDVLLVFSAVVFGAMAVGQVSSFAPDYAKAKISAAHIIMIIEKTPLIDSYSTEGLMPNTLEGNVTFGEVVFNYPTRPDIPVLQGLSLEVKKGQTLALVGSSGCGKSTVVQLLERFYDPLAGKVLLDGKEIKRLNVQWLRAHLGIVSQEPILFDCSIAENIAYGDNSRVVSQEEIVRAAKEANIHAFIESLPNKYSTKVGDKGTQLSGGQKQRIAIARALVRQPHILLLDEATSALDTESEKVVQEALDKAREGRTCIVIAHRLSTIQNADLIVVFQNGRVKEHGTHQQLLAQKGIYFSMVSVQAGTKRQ

## COc1cc(OC)c2c(c1)O[C@H](c1cc(OC)c(OC)c(OC)c1)[C@H](OC(=O)c1ccc(F)c(NC(=O)c3ccc(OC)c(OC)c3)c1)C2
[1]
  EC50: 159 nM

## COc1cc(OC)c2c(c1)O[C@H](c1cc(OC)c(OC)c(OC)c1)[C@H](OC(=O)c1ccc(F)c(NC(=O)c3cc(OC)c(OC)c(OC)c3)c1)C2
[1]
  EC50: 214 nM

## COc1cc(OC)c2c(c1)O[C@H](c1cc(OC)c(OC)c(OC)c1)[C@@H](OC(=O)c1ccc(F)c(NC(=O)c3ccc(OC)c(OC)c3)c1)C2
[1]
  EC50: 171 nM

## COc1cc(OC)c2c(c1)O[C@H](c1cc(OC)c(OC)c(OC)c1)[C@@H](OC(=O)c1ccc(F)c(NC(=O)c3cc(OC)c(OC)c(OC)c3)c1)C2
[1]
  EC50: 140 nM

## COc1cc(OC)c2c(c1)O[C@H](c1ccc(OC)c(OC)c1)[C@@H](OC(=O)c1ccc(F)c(NC(=O)/C=C/c3cc(OC)c(OC)c(OC)c3)c1)C2
[1]
  EC50: 178 nM
L929
  IC50: > 100000 nM
P-gp
  selectivity ratio: > 563

## COc1cc(OC)c2c(c1)O[C@H](c1ccc(OC)c(OC)c1)[C@@H](OC(=O)c1ccc(F)c(NC(=O)c3cc(OC)c(OC)c(OC)c3)c1)C2
[2]
  Activity: 87%
[3]
  Activity: 89%
[4]
  Activity: 90%

## COc1cc(OC)c2c(c1)O[C@@H](c1cc(OC)c(OC)c(OC)c1)[C@H](OC(=O)c1ccc(F)c(NC(=O)c3cc(OC)c(OC)c(OC)c3)c1)C2
[1]
  EC50: 135 nM
L929
  IC50: > 100000 nM
P-gp
  selectivity ratio: > 741

## COc1ccc(CCN(C)CCCC(C#N)(c2ccc(OC)c(OC)c2)C(C)C)cc1OC (stereo not given)
[5]
  EC50: 254 nM

## O=C(O[C@@H]1Cc2c(O)cc(O)cc2O[C@@H]1c1cc(O)c(O)c(O)c1)c1cc(O)c(O)c(O)c1 [EPIGALOCATECHIN GALLATE]
[1]
  EC50: > 1000 nM
